# Measurements published in ChEMBL document CHEMBL1154652, “N-(4-(6,7-Disubstituted-quinolin-4-yloxy)-3-fluorophenyl)-2-oxo-3-phenylimidazolidine-1-carboxamides: a novel series of dual c-Met/VEGFR2 receptor tyrosine kinase inhibitors” (Bioorg Med Chem Lett, 2009).
# Calls of active or inactive are those of the source. The rule behind the calls is not given here.
# Legend:
# [1] = biological target: T1, Hepatocyte growth factor receptor (Homo sapiens, UniProt P08581); test: Inhibition of GST-tagged c-Met expressed in Sf9 cells
# Target sequence in this assay (P08581 whole entry): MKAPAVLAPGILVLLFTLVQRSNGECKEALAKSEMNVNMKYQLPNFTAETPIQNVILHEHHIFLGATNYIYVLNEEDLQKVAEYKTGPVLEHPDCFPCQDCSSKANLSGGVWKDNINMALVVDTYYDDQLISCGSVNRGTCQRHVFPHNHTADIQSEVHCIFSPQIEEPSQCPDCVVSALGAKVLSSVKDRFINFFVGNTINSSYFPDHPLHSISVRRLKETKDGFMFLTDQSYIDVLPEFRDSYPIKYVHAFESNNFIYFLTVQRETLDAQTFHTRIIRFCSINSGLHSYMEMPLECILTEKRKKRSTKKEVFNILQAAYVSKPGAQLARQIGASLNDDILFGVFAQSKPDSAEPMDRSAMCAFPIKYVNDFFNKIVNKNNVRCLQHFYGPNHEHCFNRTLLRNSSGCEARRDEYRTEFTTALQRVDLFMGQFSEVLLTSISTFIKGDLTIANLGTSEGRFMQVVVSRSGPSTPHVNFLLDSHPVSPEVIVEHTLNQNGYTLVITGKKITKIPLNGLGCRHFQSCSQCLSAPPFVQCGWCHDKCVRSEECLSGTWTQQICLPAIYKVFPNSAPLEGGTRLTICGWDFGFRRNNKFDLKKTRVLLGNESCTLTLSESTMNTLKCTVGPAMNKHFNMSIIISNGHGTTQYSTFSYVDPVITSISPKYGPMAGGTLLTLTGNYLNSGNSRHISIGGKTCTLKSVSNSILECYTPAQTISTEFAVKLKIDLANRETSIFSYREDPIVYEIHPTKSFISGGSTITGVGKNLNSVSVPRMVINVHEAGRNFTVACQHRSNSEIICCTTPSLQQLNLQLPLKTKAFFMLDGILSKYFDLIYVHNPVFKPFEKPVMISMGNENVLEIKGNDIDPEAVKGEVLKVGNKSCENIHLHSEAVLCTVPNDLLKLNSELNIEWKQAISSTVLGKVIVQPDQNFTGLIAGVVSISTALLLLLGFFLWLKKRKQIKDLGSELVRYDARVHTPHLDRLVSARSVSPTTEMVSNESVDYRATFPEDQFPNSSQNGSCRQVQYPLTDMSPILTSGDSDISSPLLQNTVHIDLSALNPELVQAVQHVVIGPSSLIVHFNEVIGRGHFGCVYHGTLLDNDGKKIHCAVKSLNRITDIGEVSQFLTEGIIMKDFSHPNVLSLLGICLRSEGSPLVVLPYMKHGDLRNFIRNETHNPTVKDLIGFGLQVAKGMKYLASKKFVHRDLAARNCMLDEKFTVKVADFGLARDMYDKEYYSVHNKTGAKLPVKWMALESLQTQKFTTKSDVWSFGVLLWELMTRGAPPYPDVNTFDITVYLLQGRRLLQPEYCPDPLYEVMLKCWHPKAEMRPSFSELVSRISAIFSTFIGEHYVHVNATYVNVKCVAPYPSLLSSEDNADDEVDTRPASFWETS
# [2] = biological target: T1, Hepatocyte growth factor receptor; test: Inhibition of TPR-Met assessed as autophosphorylation
# Target sequence in this assay (P08581 25-1390 limits assumed): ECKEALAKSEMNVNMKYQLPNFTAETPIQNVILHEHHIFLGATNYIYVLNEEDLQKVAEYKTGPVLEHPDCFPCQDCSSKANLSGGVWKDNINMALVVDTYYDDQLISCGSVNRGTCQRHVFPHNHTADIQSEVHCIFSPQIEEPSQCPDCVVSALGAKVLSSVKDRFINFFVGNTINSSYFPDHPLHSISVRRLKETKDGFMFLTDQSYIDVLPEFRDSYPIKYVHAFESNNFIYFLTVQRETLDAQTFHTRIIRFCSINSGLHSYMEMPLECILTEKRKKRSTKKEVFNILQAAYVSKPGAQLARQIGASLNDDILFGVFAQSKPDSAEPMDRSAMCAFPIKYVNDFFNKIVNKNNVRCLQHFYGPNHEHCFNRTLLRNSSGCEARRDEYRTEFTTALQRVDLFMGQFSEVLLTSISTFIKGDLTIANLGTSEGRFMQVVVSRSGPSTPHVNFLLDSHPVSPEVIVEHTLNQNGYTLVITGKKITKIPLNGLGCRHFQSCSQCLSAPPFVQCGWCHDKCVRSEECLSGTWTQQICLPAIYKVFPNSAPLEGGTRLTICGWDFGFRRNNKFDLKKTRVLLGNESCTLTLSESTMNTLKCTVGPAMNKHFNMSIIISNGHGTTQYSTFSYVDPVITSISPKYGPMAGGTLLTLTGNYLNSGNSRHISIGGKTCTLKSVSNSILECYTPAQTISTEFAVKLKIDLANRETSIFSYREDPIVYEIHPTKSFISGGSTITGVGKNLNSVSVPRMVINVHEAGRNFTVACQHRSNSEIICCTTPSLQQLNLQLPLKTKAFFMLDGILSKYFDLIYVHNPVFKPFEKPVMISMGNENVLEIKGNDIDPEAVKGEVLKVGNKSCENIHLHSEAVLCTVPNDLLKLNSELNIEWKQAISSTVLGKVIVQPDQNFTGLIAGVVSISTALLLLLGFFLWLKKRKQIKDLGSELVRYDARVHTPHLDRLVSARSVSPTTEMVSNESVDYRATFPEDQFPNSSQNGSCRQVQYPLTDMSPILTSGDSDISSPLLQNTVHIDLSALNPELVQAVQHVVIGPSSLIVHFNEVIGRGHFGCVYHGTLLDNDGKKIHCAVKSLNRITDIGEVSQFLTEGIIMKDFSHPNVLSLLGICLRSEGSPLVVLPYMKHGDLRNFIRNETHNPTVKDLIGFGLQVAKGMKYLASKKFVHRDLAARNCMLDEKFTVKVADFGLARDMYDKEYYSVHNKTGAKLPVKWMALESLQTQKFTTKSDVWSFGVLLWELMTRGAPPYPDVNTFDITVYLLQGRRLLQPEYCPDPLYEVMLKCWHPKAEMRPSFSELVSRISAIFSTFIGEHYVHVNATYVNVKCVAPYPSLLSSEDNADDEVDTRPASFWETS
# [3] = Inhibition of GST-tagged VEGFR expressed in Sf9 cells
# [4] = biological target: T1, Hepatocyte growth factor receptor; test: Inhibition of Met at 100 uM
# Target sequence in this assay (P08581 whole entry): as the sequence (P08581 whole entry) above
# [5] = biological target: Fibroblast growth factor receptor 1 (Homo sapiens) (UniProt P11362); test: Inhibition of FGFR1 at 100 uM
# HUVEC [6] = test: Antiangiogenic activity against HUVEC cell assessed as inhibition of VEGF-dependent tubule formation; type: functional, Homo sapiens
# [7] = biological target: Proto-oncogene tyrosine-protein kinase Src (Homo sapiens) (UniProt P12931); test: Inhibition of c-SRC at 100 uM
# HUVEC [8] = test: Inhibition of VEGF-stimulated proliferation of HUVEC cells; type: functional, cell-based; details: Homo sapiens
# [9] = biological target: Vascular endothelial growth factor receptor 2 (Homo sapiens) (UniProt P35968); test: Inhibition of VEGFR2 at 100 uM
# HOS-TE85 = test: Antitumor activity against human MNNG-HOS cell xenografted mouse assessed as tumor regression at 40 mg/kg, po after 12 days; type: functional, organism-based; parameters: dose 40 mg/kg
# [10] = biological target: RAF proto-oncogene serine/threonine-protein kinase (Homo sapiens) (UniProt P04049); test: Inhibition of c-Raf at 100 uM
# [11] = biological target: Platelet-derived growth factor receptor alpha (Homo sapiens) (UniProt P16234); test: Inhibition of PDGFRalpha at 100 uM
# [12] = biological target: Vascular endothelial growth factor receptor 3 (Homo sapiens) (UniProt P35916); test: Inhibition of VEGFR3 at 100 uM
# [13] = biological target: Serine/threonine-protein kinase Chk2 (Homo sapiens) (UniProt O96017); test: Inhibition of CHK2 at 100 uM
# [14] = biological target: Dual specificity mitogen-activated protein kinase kinase 1 (Homo sapiens) (UniProt Q02750); test: Inhibition of MEK1 at 100 uM
# [15] = biological target: Vascular endothelial growth factor receptor 1 (Homo sapiens) (UniProt P17948); test: Inhibition of VEGFR1 at 100 uM
# [16] = biological target: Serine/threonine-protein kinase Chk1 (Homo sapiens) (UniProt O14757); test: Inhibition of CHK1 at 100 uM
# [17] = biological target: Aurora kinase A (Homo sapiens) (UniProt O14965); test: Inhibition of Aurora A at 100 uM
# [18] = biological target: Angiopoietin-1 receptor (Homo sapiens) (UniProt Q02763); test: Inhibition of Tie-2 at 100 uM
# HUVEC [19] = test: Antiangiogenic activity against HUVEC cell assessed as inhibition of tubule formation; type: functional, cell-based; details: Homo sapiens
# [20] = biological target: Receptor-type tyrosine-protein kinase FLT3 (Homo sapiens) (UniProt P36888); test: Inhibition of Flt3 at 100 uM
# [21] = biological target: ALK tyrosine kinase receptor (Homo sapiens) (UniProt Q9UM73); test: Inhibition of ALK at 100 uM
# [22] = biological target: Inhibitor of nuclear factor kappa-B kinase subunit beta (Homo sapiens) (UniProt O14920); test: Inhibition of IKK-beta at 100 uM
# [23] = biological target: High affinity nerve growth factor receptor (Homo sapiens) (UniProt P04629); test: Inhibition of TrkA at 100 uM
# HMEC = test: Antiproliferative activity against human HMEC cells after 72 hrs by MTT assay; type: functional, cell-based
# [24] = biological target: Tyrosine-protein kinase JAK2 (Homo sapiens) (UniProt O60674); test: Inhibition of JAK2 at 100 uM
# [25] = biological target: Epidermal growth factor receptor (Homo sapiens) (UniProt P00533); test: Inhibition of EGFR at 100 uM
# [26] = biological target: RAC-alpha serine/threonine-protein kinase (Homo sapiens) (UniProt P31749); test: Inhibition of PKBalpha at 100 uM
# MKN-45 = test: Antiproliferative activity against human MKN45 cells after 72 hrs by MTT assay; type: functional, cell-based; details: MKN-45, 72 h
# HCT-116 = test: Antiproliferative activity against human HCT116 cells after 72 hrs by MTT assay; type: functional, cell-based; details: HCT-116, 72 h
# [27] = Bioavailability in rat; type: ADME, organism-based; details: in vivo
# [28] = biological target: Proto-oncogene tyrosine-protein kinase receptor Ret (Homo sapiens) (UniProt P07949); test: Inhibition of Ret at 100 uM
# [29] = biological target: Macrophage-stimulating protein receptor (Homo sapiens) (UniProt Q04912); test: Inhibition of Ron at 100 uM
# [30] = biological target: Glycogen synthase kinase-3 beta (Homo sapiens) (UniProt P49841); test: Inhibition of GSK3-beta at 100 uM
# [31] = biological target: Platelet-derived growth factor receptor beta (Homo sapiens) (UniProt P09619); test: Inhibition of PDGFRbeta at 100 uM
# [32] = biological target: Tyrosine-protein kinase JAK3 (Homo sapiens) (UniProt P52333); test: Inhibition of JAK3 at 100 uM
# [33] = Inhibition of VEGF-induced ERK phosphorylation in HUVEC; type: cell-based; details: Homo sapiens
# [34] = Half life in rat; type: ADME, organism-based; details: in vivo
# [35] = biological target: Mast/stem cell growth factor receptor Kit (Homo sapiens) (UniProt P10721); test: Inhibition of c-kit at 100 uM
# [36] = biological target: Cyclin-dependent kinase 2/cyclin E (Homo sapiens) (UniProt P24864+P24941+O96020); test: Inhibition of CDK2/cyclin E at 100 uM; type: protein-complex assay
# Macrophage-stimulating protein receptor (Homo sapiens), sequence (Q04912 25-304 limits assumed): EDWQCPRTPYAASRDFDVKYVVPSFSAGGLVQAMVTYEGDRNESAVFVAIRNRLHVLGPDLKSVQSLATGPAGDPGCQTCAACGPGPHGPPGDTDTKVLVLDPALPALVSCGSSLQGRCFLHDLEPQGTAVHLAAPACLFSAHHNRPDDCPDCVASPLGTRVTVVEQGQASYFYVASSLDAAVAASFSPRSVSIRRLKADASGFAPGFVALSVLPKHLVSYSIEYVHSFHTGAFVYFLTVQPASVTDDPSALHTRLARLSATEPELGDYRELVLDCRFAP
# Macrophage-stimulating protein receptor (Homo sapiens), sequence (Q04912 310-1400 limits assumed): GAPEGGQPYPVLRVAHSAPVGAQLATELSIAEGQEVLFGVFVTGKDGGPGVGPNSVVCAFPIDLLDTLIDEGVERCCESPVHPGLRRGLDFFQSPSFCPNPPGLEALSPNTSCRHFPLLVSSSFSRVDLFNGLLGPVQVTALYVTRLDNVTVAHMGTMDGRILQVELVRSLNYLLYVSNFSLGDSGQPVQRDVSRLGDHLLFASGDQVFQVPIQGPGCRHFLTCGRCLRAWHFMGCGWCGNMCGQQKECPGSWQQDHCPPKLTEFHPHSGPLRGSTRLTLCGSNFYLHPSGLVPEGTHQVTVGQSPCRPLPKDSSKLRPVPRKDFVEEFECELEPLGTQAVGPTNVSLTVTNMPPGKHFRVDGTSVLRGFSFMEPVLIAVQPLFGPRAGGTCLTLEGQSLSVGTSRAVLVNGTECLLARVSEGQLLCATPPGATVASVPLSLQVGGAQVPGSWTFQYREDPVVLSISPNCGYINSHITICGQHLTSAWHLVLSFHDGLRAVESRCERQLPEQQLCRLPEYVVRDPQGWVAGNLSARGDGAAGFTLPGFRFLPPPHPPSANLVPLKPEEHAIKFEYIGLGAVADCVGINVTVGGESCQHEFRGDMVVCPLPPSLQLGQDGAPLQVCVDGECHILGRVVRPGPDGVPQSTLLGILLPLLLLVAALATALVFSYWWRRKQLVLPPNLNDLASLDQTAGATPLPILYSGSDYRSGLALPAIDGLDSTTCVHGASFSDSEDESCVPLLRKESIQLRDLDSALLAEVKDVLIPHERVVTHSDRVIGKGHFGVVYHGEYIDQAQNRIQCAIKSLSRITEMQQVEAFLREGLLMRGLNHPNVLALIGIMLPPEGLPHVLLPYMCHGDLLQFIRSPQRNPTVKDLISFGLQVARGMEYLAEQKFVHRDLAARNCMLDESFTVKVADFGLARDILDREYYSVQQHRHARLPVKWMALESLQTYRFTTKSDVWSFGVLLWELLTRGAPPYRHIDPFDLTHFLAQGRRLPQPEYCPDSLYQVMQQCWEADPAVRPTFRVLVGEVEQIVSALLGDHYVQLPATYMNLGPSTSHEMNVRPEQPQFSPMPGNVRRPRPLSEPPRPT
# RAC-alpha serine/threonine-protein kinase (Homo sapiens), sequence (P31749 whole entry): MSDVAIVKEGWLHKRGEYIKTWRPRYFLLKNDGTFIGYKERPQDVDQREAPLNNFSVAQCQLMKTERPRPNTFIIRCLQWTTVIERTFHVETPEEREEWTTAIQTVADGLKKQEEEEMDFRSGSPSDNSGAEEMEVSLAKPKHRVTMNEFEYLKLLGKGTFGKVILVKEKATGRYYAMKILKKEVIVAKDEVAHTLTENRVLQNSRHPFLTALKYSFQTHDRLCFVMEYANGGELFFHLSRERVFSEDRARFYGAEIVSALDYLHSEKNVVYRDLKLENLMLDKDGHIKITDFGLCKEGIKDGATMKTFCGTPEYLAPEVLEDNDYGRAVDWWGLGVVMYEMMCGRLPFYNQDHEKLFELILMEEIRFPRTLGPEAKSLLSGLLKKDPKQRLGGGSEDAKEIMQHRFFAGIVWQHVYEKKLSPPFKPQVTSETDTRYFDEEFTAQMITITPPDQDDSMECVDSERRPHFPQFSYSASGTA
# Aurora kinase A (Homo sapiens), sequence (O14965 whole entry): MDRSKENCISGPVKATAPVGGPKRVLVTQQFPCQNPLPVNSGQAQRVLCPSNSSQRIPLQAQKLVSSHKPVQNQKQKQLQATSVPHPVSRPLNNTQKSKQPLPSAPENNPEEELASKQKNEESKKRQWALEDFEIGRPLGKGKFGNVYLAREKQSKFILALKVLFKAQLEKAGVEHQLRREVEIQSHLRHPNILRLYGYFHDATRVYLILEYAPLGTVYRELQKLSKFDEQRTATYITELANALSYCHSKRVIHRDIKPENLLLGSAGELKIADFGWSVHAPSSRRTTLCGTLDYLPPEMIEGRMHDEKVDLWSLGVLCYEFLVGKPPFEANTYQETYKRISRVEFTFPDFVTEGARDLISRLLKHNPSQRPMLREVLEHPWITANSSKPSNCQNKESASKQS
smiles,measurement,setting,value
COc1cc2nccc(Nc3ccc(NC(=O)N4CCN(c5ccccc5)C4=O)cc3F)c2cc1OC,IC50,[1],0.2 µM
same,IC50,[2],Not Active
same,IC50,[3],1.4 µM
COc1cc2nccc(Oc3ccc(NC(=O)N4CCN(c5ccc(F)cc5)C4=O)cc3F)c2cc1OC,IC50,[1],0.03 µM
same,IC50,[2]; read-out: IC50,0.09 µM
same,IC50,[3],0.02 µM
COc1cc2nccc(Oc3ccc(NC(=O)N4CCN(c5ccccn5)C4=O)cc3F)c2cc1OC,IC50,[1],0.04 µM
same,IC50,[2],Not Active
same,IC50,[3],0.23 µM
COc1cc2nccc(Oc3ccc(NC(=O)N4CCN(c5ccc(F)cc5)C4=O)cc3)c2cc1OC,IC50,[1],0.05 µM
same,IC50,[2]; read-out: IC50,0.15 µM
same,IC50,[3],0.03 µM
COc1cc2nccc(Oc3ccc(NC(=O)N4CCN(c5ccccc5)C4=O)cn3)c2cc1OC,IC50,[1],0.06 µM
same,IC50,[2]; read-out: IC50,5 µM
same,IC50,[3],1.3 µM
COc1cc2nccc(Sc3ccc(NC(=O)N4CCN(c5ccc(F)cc5)C4=O)cc3)c2cc1OC,IC50,[1],0.04 µM
same,IC50,[2]; read-out: IC50,0.08 µM
same,IC50,[3],0.1 µM
COc1cc2nccc(Oc3ccc(NC(=O)N4CCN(c5ccc(F)cc5)C4=O)cc3F)c2cc1OCCCN1CCOCC1,IC50,[1],0.04 µM
same,IC50,[2]; read-out: IC50,0.03 µM
same,IC50,[3],0.12 µM
COc1cc2nccc(Oc3ccc(NC(=S)NC(=O)Cc4ccccc4)cc3F)c2cc1OC,IC50,[3],0.032 µM
Cn1cnc(-c2cc3nccc(Oc4ccc(NC(=O)N5CCN(c6ccccc6)C5=O)cc4F)c3s2)c1,IC50,[3],0.008 µM
COc1cc2ncnc(Nc3ccc(NC(=O)N4CCN(c5ccccc5)C4=O)cc3F)c2cc1OC,IC50,[1],0.6 µM
same,IC50,[2]; read-out: IC50,3.3 µM
same,IC50,[3],> 2 µM
COc1cc2nccc(N(C)c3ccc(NC(=O)N4CCN(c5ccccc5)C4=O)cc3F)c2cc1OC,IC50,[1],0.4 µM
same,IC50,[2],Not Active
same,IC50,[3],5.9 µM
COc1cc2nccc(Oc3ccc(NC(=O)N4CCN(c5ccccc5)C4=O)nc3)c2cc1OC,IC50,[1],0.03 µM
same,IC50,[2]; read-out: IC50,> 10 µM
same,IC50,[3],0.02 µM
COc1cc2nccc(Oc3ccc(NC(=O)N4CCN(c5cccc(F)c5)C4=O)cc3F)c2cc1OC,IC50,[1],0.05 µM
same,IC50,[2]; read-out: IC50,0.2 µM
same,IC50,[3],0.015 µM
COc1cc2nccc(Oc3ccc(NC(=O)N4CCN(N5CCCCC5)C4=O)cc3F)c2cc1OC,IC50,[1],0.06 µM
same,IC50,[2]; read-out: IC50,0.64 µM
same,IC50,[3],0.37 µM
COc1cc2nccc(Oc3ccc(NC(=O)N4CCN(c5ccccc5)C4=O)cc3)c2cc1OC,IC50,[1],0.05 µM
same,IC50,[2]; read-out: IC50,0.24 µM
same,IC50,[3],0.03 µM
COc1cc2nccc(Oc3ccc(NC(=O)N4CCN(c5ccccc5F)C4=O)cc3F)c2cc1OC,IC50,[1],0.06 µM
same,IC50,[2]; read-out: IC50,0.37 µM
same,IC50,[3],0.02 µM
COc1cc2ncnc(Oc3ccc(NC(=O)N4CCN(c5ccccc5)C4=O)cc3F)c2cc1OC,IC50,[1],0.04 µM
same,IC50,[2]; read-out: IC50,> 1 µM
same,IC50,[3],0.03 µM
Cn1cnc(-c2cc3nccc(Oc4ccc(NC(=S)NC(=O)Cc5ccccc5)cc4F)c3s2)c1,IC50,[3],0.026 µM
COc1cc2nccc(Oc3ccc(NC(=O)N4CCN(c5ccccc5)C4=O)c(F)c3)c2cc1OC,IC50,[1],0.03 µM
same,IC50,[2]; read-out: IC50,> 10 µM
same,IC50,[3],0.05 µM
COc1cc2c(Oc3ccc(NC(=O)N4CCN(c5ccccc5)C4=O)cc3F)ccnc2cc1OCC1CCN(C)CC1,IC50,[1],0.05 µM
same,IC50,[2]; read-out: IC50,0.13 µM
same,IC50,[3],0.02 µM
COCCOc1cc2nccc(Oc3ccc(NC(=O)N4CCN(c5ccccc5)C4=O)cc3F)c2cc1OCCOC,IC50,[1],0.06 µM
same,IC50,[2]; read-out: IC50,0.02 µM
same,IC50,[3],0.04 µM
COc1cc2ncnc(N(C)c3ccc(NC(=O)N4CCN(c5ccccc5)C4=O)cc3F)c2cc1OC,IC50,[1],4 µM
same,IC50,[2]; read-out: IC50,> 10 µM
same,IC50,[3],> 2 µM
COc1cc2c(Oc3ccc(NC(=O)N4CCN(c5ccccc5)C4=O)cc3F)ccnc2cc1OCCCN1CCOCC1,IC50,[1],0.05 µM
same,IC50,[2]; read-out: IC50,0.05 µM
same,IC50,[3],0.03 µM
COc1cc2nccc(Oc3ccc(NC(=O)N4CCN(C5CCCCC5)C4=O)cc3F)c2cc1OC,IC50,[1],0.11 µM
same,IC50,[2]; read-out: IC50,0.86 µM
same,IC50,[3],0.21 µM
COc1cc2nccc(Oc3ccc(NC(=O)N4CCN(c5ccccc5)C4=O)cc3F)c2cc1OC,inhibition,[4],100%
same,inhibition,[5],11%
same,inhibition (INH),HUVEC [6],99.4%
same,inhibition,[7],7%
same,IC50,[2]; read-out: IC50,0.09 µM
same,IC50,HUVEC [8],0.002 µM
same,inhibition,[9],92%
same,Activity,HOS-TE85,Active
same,inhibition,[10],42%
same,inhibition,[11],26%
same,inhibition,[12],93%
same,inhibition,[13],1%
same,inhibition,[14],0%
same,inhibition,[15],100%
same,inhibition,[16],0%
same,inhibition,[17],0%
same,inhibition,[18],23%
same,IC50,HUVEC [19],0.008 µM
same,inhibition,[20],72%
same,inhibition,[21],0%
same,inhibition,[22],0%
same,inhibition,[23],94%
same,IC50,HMEC,> 2.5 µM
same,inhibition,[24],4%
same,inhibition,[25],0%
same,inhibition,[26],0%
same,IC50,MKN-45,0.008 µM
same,IC50,HCT-116,0.3 µM
same,bioavailability,[27],22%
same,inhibition,[28],96%
same,inhibition,[29],92%
same,inhibition,[30],0%
same,inhibition,[31],6%
same,inhibition,[32],6%
same,IC50,[33],< 0.001 µM
same,half-life,[34],4.4 h
same,inhibition,[35],12%
same,IC50,[3],0.01 µM
same,inhibition,[36],0%
COc1cc2nccc(Oc3ccc(NC(=O)N4CCN(c5ccccc5OC)C4=O)cc3F)c2cc1OC,IC50,[1],0.05 µM
same,IC50,[2]; read-out: IC50,0.15 µM
same,IC50,[3],0.03 µM
COc1cc2nccc(Oc3ccc(NC(=O)N4CCN(c5ccncc5)C4=O)cc3F)c2cc1OC,IC50,[1],0.1 µM
same,IC50,[2]; read-out: IC50,0.63 µM
same,IC50,[3],0.6 µM
C=CCN1CCN(C(=O)Nc2ccc(Oc3ccnc4cc(OC)c(OC)cc34)c(F)c2)C1=O,IC50,[1],0.2 µM
same,IC50,[2],Not Active
same,IC50,[3],0.63 µM
COc1cc2c(Oc3ccc(NC(=O)N4CCN(c5ccccc5)C4=O)cc3F)ccnc2cc1OCC1CCNCC1,IC50,[1],0.04 µM
same,IC50,[2]; read-out: IC50,0.08 µM
same,IC50,[3],0.02 µM
